The source of these data is ChEMBL document CHEMBL5338754, “Identification of Binding Sites in the Nucleotide-Binding Domain of P-Glycoprotein for a Potent and Nontoxic Modulator, the Amine-Containing Monomeric Flavonoid FM04” (J Med Chem, 2023).

Data set [1] deals with ATP-dependent translocase ABCB1 (Homo sapiens, UniProt P08183, G1114I). Description: Negative allosteric modulator activity at human P-gp G1114I mutant expressed in HEK293FT cells assessed as fold change in intracellular doxorubicin accumulation using doxorubicin as substrate at 1 uM incubated for 150 mins by microplate reader assay relative to DMSO. The class given is cell-based. Conditions: 2.5 h; call rule not given here.

The target of data set [2] is T1, ATP-dependent translocase ABCB1 (Homo sapiens, UniProt P08183, Q1193F). Briefly: Activation of P-gp ATPase activity in human P-gp Q1193F mutant expressed in HEK293FT cell microsomes at 20 uM incubated for 1 hr in presence of ATP by Glo-luminescence based microplate reader assay (reference value: 0.41 +/- 0.06 pmol/min/microg). The arrangement: species or system Microsome.

The target in data set [3] is T2, ATP-dependent translocase ABCB1 (Homo sapiens, UniProt P08183, L1113A). Briefly: Negative allosteric modulator activity at human P-gp L1113A mutant expressed in HEK293FT cells assessed as reversal of P-gp mediated PTX resistance by measuring sensitivity fold change incubated for 5 days by MTS assay. The class given is cell-based. Conditions: 120 h, time 5 day.
T2 sequence (P08183 whole entry L1113A): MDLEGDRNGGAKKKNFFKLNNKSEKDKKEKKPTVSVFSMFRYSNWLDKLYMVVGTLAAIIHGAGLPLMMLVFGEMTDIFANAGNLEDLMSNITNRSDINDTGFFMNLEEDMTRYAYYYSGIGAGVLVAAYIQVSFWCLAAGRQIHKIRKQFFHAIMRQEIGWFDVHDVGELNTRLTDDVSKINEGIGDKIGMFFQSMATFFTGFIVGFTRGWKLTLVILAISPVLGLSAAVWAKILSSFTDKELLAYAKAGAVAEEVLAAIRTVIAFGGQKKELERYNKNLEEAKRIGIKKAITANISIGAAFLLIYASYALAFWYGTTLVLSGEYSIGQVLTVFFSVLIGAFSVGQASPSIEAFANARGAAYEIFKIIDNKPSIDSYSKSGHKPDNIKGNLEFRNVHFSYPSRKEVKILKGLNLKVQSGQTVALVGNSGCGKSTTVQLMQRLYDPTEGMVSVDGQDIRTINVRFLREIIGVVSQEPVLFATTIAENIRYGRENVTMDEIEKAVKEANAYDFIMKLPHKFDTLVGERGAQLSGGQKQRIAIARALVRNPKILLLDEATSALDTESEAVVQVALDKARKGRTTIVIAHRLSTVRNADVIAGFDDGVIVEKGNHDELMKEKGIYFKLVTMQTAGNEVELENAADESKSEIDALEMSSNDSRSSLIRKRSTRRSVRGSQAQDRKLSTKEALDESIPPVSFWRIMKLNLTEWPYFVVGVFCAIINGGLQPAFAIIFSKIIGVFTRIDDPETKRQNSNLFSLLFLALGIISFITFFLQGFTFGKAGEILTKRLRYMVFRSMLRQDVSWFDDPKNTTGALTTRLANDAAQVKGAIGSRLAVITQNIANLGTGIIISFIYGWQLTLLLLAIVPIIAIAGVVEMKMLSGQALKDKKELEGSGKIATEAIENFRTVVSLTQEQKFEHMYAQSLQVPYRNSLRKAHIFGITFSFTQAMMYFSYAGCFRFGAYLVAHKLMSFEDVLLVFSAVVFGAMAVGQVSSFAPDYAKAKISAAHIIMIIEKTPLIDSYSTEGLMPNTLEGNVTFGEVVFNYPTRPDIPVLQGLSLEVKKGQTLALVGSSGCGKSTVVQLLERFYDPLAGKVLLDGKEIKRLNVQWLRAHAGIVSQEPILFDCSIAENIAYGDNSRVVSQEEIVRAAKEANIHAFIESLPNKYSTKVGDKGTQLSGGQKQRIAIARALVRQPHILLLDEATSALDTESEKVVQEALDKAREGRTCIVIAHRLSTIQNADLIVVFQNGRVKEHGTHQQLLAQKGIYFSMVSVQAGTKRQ
For data set [4], the target named is T3, ATP-dependent translocase ABCB1 (Homo sapiens, UniProt P08183, Q1193N). Briefly: Negative allosteric modulator activity at human P-gp Q1193N mutant expressed in HEK293FT cells assessed as fold change in intracellular doxorubicin accumulation using doxorubicin as substrate at 1 uM incubated for 150 mins by microplate reader assay relative to DMSO. Conditions: 2.5 h. The class given is cell-based.

For data set [5], the target named is T4, ATP-dependent translocase ABCB1 (Homo sapiens, UniProt P08183). Description: Activation of P-gp ATPase activity in wildtype human P-gp expressed in HEK293FT cell microsomes at 20 uM incubated for 1 hr in presence of ATP by Glo-luminescence based microplate reader assay (reference value: 0.32 +/- 0.02 pmol/min/microg). The arrangement: species or system Microsome.
T4 sequence (P08183 whole entry): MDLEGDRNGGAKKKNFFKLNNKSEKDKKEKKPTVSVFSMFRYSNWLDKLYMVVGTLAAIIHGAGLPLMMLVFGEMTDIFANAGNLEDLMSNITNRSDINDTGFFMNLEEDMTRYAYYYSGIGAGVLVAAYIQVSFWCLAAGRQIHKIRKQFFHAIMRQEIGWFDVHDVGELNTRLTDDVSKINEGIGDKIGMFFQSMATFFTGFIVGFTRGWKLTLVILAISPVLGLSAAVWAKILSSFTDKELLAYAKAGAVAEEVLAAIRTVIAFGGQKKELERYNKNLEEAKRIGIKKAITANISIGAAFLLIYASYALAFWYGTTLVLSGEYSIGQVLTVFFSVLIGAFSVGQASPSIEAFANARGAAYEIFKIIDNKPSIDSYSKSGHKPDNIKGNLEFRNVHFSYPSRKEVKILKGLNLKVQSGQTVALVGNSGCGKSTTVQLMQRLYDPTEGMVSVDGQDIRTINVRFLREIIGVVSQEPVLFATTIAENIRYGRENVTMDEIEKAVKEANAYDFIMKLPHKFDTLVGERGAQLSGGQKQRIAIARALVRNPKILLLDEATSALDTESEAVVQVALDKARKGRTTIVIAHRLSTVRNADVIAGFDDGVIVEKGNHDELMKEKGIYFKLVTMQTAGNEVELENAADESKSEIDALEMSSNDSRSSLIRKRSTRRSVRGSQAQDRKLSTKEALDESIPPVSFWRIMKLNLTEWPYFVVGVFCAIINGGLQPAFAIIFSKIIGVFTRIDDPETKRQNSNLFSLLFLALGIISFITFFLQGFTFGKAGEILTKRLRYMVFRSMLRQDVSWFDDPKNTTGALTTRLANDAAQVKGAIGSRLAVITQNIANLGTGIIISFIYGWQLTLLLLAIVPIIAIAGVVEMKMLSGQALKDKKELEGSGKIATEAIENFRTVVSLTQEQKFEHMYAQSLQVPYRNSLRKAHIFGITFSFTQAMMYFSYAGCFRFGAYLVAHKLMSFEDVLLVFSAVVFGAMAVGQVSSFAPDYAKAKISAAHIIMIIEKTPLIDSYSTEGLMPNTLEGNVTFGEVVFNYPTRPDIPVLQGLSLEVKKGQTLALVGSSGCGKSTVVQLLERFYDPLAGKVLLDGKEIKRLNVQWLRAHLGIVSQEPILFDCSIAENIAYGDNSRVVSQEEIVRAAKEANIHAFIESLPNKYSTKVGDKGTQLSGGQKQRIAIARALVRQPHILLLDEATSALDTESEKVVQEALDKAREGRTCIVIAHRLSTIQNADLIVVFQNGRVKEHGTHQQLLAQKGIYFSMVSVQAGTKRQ

The target in data set [6] is T4, ATP-dependent translocase ABCB1. Briefly: Negative allosteric modulator activity at human wildtype P-gp expressed in HEK293FT cells assessed as reversal of P-gp mediated PTX resistance by measuring sensitivity fold change incubated for 5 days by MTS assay. The class given is cell-based. To be noted: 120 h, time 5 day.
Data set [7] addresses ATP-dependent translocase ABCB1 (Homo sapiens, UniProt P08183, Q1193E). Description: Negative allosteric modulator activity at human P-gp Q1193E mutant expressed in HEK293FT cells assessed as reversal of P-gp mediated PTX resistance by measuring sensitivity fold change incubated for 5 days by MTS assay. The class given is cell-based. Conditions: 120 h, time 5 day. In general terms: Tetrazolium dyes change colour on reduction, which living cells bring about.

Data set [8] concerns the target ATP-dependent translocase ABCB1 (Homo sapiens, UniProt P08183, I1115W). Description: Negative allosteric modulator activity at human P-gp I1115W mutant expressed in HEK293FT cells assessed as increase in intracellular doxorubicin accumulation using doxorubicin as substrate at 1 uM incubated for 150 mins by microplate reader assay (reference value: 98.4 +/- 1.3 %). It counts as cell-based. To be noted: 2.5 h.

Data set [9] addresses T2, ATP-dependent translocase ABCB1. Description: Negative allosteric modulator activity at human P-gp L1113A mutant expressed in HEK293FT cells assessed as increase in intracellular doxorubicin accumulation using doxorubicin as substrate at 1 uM incubated for 150 mins by microplate reader assay (reference value: 45.6 +/- 1.5 %). It counts as cell-based. Conditions: 2.5 h.

Data set [10] concerns the target ATP-dependent translocase ABCB1 (Homo sapiens, UniProt P08183, Q1193T). Briefly: Negative allosteric modulator activity at human P-gp Q1193T mutant expressed in HEK293FT cells assessed as reversal of P-gp mediated PTX resistance by measuring sensitivity fold change incubated for 5 days by MTS assay. It counts as cell-based. To be noted: 120 h, time 5 day.
In data set [11] the target is ATP-dependent translocase ABCB1 (Homo sapiens, UniProt P08183, T1226Y). Briefly: Negative allosteric modulator activity at human P-gp T1226Y mutant expressed in HEK293FT cells assessed as fold change in intracellular doxorubicin accumulation using doxorubicin as substrate at 1 uM incubated for 150 mins by microplate reader assay relative to DMSO. Conditions: 2.5 h. The class given is cell-based.

Data set [12] addresses T5, ATP-dependent translocase ABCB1 (Homo sapiens, UniProt P08183, I1115F). Briefly: Negative allosteric modulator activity at human P-gp I1115F mutant expressed in HEK293FT cells assessed as reversal of P-gp mediated PTX resistance by measuring sensitivity fold change incubated for 5 days by MTS assay. To be noted: 120 h, time 5 day. The class given is cell-based.
Data set [13] concerns the target ATP-dependent translocase ABCB1 (Homo sapiens, UniProt P08183, I1115K). Description: Negative allosteric modulator activity at human P-gp I1115K mutant expressed in HEK293FT cells assessed as fold change in intracellular doxorubicin accumulation using doxorubicin as substrate at 1 uM incubated for 150 mins by microplate reader assay relative to DMSO. It counts as cell-based. Conditions: 2.5 h.

In data set [14] the target is T3, ATP-dependent translocase ABCB1. Description: Negative allosteric modulator activity at human P-gp Q1193N mutant expressed in HEK293FT cells assessed as increase in intracellular doxorubicin accumulation using doxorubicin as substrate at 1 uM incubated for 150 mins by microplate reader assay (reference value: 59.7 +/- 2.1 %). It counts as cell-based. To be noted: 2.5 h.

Data set [15] concerns the target P-gp (ABCB1) I1115F mutant (Homo sapiens, UniProt P08183, I1115F). Description: Activation of P-gp ATPase activity in human P-gp I1115F mutant expressed in HEK293FT cell microsomes assessed as fold change of ATPase activity at 20 uM incubated for 1 hr in presence of ATP by Glo-luminescence based microplate reader assay relative to DMSO. The arrangement: species or system Microsome. Conditions: read-out: FC.

The target of data set [16] is T6, ATP-dependent translocase ABCB1 (Homo sapiens, UniProt P08183, I1115Y). Description: Negative allosteric modulator activity at human P-gp I1115Y mutant expressed in HEK293FT cells assessed as increase in intracellular doxorubicin accumulation using doxorubicin as substrate at 1 uM incubated for 150 mins by microplate reader assay (reference value: 97.3 +/- 3.7 %). It counts as cell-based. Conditions: 2.5 h.
T6 sequence (P08183 whole entry I1115Y): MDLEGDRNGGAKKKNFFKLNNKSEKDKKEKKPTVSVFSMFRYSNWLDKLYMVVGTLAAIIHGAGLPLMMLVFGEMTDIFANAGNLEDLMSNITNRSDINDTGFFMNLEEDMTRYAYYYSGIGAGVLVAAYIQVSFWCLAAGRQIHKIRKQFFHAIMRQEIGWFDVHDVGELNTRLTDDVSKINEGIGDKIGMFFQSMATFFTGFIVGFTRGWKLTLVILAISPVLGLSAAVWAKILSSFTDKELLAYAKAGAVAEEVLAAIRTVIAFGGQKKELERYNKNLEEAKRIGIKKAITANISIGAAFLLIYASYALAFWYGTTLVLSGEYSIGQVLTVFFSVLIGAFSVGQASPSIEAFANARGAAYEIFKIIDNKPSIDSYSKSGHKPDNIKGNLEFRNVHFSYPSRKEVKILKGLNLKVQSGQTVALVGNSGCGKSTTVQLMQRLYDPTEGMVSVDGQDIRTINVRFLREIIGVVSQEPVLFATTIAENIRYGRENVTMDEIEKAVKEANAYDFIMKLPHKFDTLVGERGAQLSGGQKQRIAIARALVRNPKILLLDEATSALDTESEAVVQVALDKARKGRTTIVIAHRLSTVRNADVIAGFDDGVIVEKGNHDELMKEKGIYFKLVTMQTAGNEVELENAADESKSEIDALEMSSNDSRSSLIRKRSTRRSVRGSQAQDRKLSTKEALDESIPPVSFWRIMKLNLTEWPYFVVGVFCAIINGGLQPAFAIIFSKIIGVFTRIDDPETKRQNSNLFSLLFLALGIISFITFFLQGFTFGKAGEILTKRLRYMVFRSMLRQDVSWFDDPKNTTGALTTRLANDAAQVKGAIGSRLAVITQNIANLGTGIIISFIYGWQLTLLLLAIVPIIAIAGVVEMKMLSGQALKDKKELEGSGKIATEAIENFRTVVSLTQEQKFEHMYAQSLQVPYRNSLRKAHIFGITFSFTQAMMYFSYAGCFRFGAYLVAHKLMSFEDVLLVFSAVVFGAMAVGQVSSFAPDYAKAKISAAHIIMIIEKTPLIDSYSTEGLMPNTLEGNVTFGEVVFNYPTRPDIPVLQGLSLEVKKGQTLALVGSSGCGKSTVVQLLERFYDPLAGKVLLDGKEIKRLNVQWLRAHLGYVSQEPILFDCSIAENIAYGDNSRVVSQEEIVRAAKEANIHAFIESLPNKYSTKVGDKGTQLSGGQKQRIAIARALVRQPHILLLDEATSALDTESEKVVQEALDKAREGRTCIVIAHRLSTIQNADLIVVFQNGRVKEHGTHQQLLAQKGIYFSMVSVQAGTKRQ

Data set [17] deals with T6, ATP-dependent translocase ABCB1. Briefly: Negative allosteric modulator activity at human P-gp I1115Y mutant expressed in HEK293FT cells assessed as fold change in intracellular doxorubicin accumulation using doxorubicin as substrate at 1 uM incubated for 150 mins by microplate reader assay relative to DMSO. The class given is cell-based. To be noted: 2.5 h.
Data set [18] concerns the target ATP-dependent translocase ABCB1 (Mus musculus, UniProt P06795). Briefly: Binding affinity to mouse P-glycoprotein expressed in Pichia pastoris assessed as stabilization of protein by measuring fluorescence at 100 uM incubated for 1 hr by Western blotting analysis. In general terms: Immunoblotting shows a protein as a band on a membrane.
The target of data set [19] is T1, ATP-dependent translocase ABCB1. Description: Negative allosteric modulator activity at human P-gp Q1193F mutant expressed in HEK293FT cells assessed as increase in intracellular doxorubicin accumulation using doxorubicin as substrate at 1 uM incubated for 150 mins by microplate reader assay (reference value: 64.7 +/- 2.6 %). The class given is cell-based. Conditions: 2.5 h.

The target in data set [20] is ATP-dependent translocase ABCB1 (Homo sapiens, UniProt P08183, G1114A). Description: Negative allosteric modulator activity at human P-gp G1114A mutant expressed in HEK293FT cells assessed as fold change in intracellular doxorubicin accumulation using doxorubicin as substrate at 1 uM incubated for 150 mins by microplate reader assay relative to DMSO. It counts as cell-based. Conditions: 2.5 h.

Data set [21] addresses T5, ATP-dependent translocase ABCB1. Description: Negative allosteric modulator activity at human P-gp I1115F mutant expressed in HEK293FT cells assessed as increase in intracellular doxorubicin accumulation using doxorubicin as substrate at 1 uM incubated for 150 mins by microplate reader assay (reference value: 65.5 +/- 0.9 %). It counts as cell-based. To be noted: 2.5 h.

T5 sequence (P08183 whole entry I1115F): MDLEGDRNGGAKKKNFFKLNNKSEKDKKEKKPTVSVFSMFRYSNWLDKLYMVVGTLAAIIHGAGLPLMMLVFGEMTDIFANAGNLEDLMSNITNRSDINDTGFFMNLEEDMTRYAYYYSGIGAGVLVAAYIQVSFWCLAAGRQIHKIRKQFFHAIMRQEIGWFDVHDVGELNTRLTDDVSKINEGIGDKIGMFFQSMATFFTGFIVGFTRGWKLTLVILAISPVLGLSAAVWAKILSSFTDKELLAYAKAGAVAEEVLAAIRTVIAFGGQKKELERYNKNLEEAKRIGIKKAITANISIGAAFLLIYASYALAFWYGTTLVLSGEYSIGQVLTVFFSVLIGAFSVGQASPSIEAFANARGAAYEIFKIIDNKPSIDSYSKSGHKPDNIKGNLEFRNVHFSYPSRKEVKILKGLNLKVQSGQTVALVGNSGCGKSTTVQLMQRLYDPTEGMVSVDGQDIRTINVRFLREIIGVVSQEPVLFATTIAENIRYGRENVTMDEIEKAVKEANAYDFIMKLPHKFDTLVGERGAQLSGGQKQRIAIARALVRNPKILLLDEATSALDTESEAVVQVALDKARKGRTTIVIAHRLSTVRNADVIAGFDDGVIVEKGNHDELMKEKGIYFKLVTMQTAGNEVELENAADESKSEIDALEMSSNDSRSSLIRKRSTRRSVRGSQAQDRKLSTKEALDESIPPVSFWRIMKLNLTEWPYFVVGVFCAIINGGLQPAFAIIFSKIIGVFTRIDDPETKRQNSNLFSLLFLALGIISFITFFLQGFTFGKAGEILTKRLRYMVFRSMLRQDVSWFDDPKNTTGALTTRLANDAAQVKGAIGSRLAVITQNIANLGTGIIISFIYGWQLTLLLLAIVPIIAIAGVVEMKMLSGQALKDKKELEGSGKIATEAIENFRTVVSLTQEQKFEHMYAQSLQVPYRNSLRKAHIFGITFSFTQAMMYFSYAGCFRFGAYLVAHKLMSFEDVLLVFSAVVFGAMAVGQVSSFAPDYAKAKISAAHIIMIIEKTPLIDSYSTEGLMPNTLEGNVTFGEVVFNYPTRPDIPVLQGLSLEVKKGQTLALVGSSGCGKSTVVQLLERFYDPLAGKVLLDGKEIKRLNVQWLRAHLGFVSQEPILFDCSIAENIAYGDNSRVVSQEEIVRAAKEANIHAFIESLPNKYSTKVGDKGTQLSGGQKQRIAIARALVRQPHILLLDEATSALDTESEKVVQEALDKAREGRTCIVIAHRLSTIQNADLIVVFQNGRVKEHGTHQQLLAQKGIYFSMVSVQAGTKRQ

With `O=c1cc(-c2ccc(OCCOCCNCc3ccccc3)cc2)oc2ccccc12`, the “fold change (FC)” value in data set [1] is reported as 1; in data set [3], 140.5; in data set [4], 1.5; in data set [6], 73; in [7] it was 4.3; in [10], 8.5. Besides, the “fold change (FC)” value is 1.5 in [11]; 15.6 in data set [12]; 1 in data set [13]; 1 in [17]; 1 in [20]. The Activity in data set [2] amounted to 0.45 pmol/min/µg; in [5], 0.52 pmol/min/µg; in data set [8], 99%; in data set [9], 82.2%; in data set [14], 91.9%; in [16], 96.4%. Besides, the Activity entry in data set [18] was “Not Active”; in [19] it was 74.6%; in data set [21] it was 83.8%. Moreover, in data set [15], the fold induction at 1 h, 20 µM stood at 1.2.
